One block for each molecule: values may come before it. The source made the active and inactive calls. The rule behind the calls is not given here.
Columns and labels:
[1] = system: Mast/stem cell growth factor receptor Kit (Homo sapiens), P10721 [D820E]; conditions: Mus musculus
Description: Inhibition of c-KIT D820E mutant in mouse BAF3(transformed) cells assessed as growth inhibition after 72 hrs by CCK8 assay

[2] = Antitumor activity against mouse BAF3(transformed) cells harboring c-KIT T670I mutant implanted in BALB/c nu mouse assessed as tumor growth inhibition at 100 mg/kg/day, po administered via gavage for 11 days relative to control; format: functional; conditions: 264 h, read-out: TGI
[3] = Antitumor activity against mouse BAF3(transformed) cells harboring c-KIT D820G mutant implanted in BALB/c nu mouse assessed as tumor growth inhibition at 40 mg/kg/day, po administered via gavage for 9 days relative to control; format: functional; conditions: 216 h, read-out: TGI
Mus musculus [4] = format: functional, organism-based; conditions: BALB/c, 80 mg/kg, TDE = time-dependent effect
Homo sapiens = format: functional, cell-based
[5] = system: Mast/stem cell growth factor receptor Kit (Homo sapiens), P10721 [V559D]; conditions: Mus musculus
Description: Inhibition of c-KIT V559D mutant in mouse BAF3(transformed) cells assessed as growth inhibition after 72 hrs by CCK8 assay

Mus musculus [6] = species: Mus musculus; assay: Inhibition of c-KIT V654A/V559D double mutant in mouse BAF3(transformed) cells assessed as growth inhibition after 72 hrs by CCK8 assay
[7] = molecular target: T1, Mast/stem cell growth factor receptor Kit (Homo sapiens, UniProt P10721, 560-578DEL); format: cell-based, GISTT1
T1 sequence (P10721 whole entry, looked up, stated change not applied, the tested form may be a part): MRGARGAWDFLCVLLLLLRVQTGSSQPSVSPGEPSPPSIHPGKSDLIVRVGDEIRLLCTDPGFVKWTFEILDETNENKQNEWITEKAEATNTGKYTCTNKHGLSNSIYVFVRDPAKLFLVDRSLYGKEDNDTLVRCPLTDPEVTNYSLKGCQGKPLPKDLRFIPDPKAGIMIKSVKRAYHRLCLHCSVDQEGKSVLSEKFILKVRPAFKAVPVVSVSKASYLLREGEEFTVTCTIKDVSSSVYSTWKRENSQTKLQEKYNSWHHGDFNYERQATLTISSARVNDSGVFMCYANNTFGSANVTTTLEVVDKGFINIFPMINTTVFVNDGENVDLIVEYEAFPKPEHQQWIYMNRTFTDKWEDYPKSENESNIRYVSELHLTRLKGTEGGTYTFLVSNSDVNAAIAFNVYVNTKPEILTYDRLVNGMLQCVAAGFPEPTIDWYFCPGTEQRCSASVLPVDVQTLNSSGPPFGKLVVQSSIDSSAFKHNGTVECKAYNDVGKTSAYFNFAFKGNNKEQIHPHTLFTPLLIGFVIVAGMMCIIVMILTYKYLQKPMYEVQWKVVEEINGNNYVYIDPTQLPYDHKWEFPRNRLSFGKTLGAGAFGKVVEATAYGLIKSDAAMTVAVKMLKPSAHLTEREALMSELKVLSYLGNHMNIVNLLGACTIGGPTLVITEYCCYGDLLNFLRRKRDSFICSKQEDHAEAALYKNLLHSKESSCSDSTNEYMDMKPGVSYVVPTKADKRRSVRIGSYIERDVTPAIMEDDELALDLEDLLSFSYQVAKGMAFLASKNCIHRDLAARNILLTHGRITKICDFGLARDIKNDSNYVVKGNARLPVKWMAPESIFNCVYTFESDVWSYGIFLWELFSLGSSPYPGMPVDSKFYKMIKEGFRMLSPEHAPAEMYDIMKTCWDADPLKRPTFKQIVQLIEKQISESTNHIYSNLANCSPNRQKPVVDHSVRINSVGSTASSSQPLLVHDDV

[8] = Inhibition of recombinant human GST-tagged FLT4 cytoplasmic domain Q890H/V1128L/H1146R mutant (800 to 1297 residues) expressed in baculovirus expression system by Z-lyte assay
[9] = molecular target: Platelet-derived growth factor receptor beta (Mus musculus) (UniProt P05622); assay: Inhibition of PDGFRB in mouse BAF3(transformed) cells assessed as growth inhibition after 72 hrs by CCK8 assay
Mus musculus [10] = species: Mus musculus; assay: Inhibition of c-KIT S709F mutant in mouse BAF3(transformed) cells assessed as growth inhibition after 72 hrs by CCK8 assay
[11] = system: Mast/stem cell growth factor receptor Kit (Homo sapiens), P10721 [D820Y]; conditions: Mus musculus
Description: Inhibition of c-KIT D820Y mutant in mouse BAF3(transformed) cells assessed as growth inhibition after 72 hrs by CCK8 assay

[12] = molecular target: T2, Mast/stem cell growth factor receptor Kit (Homo sapiens, UniProt P10721, 560-578DEL/T670I); format: cell-based, GISTT1
T2 sequence (P10721 whole entry, looked up, stated change not applied): as the sequence (P10721 whole entry, looked up, stated change not applied, the tested form may be a part) above

[13] = molecular target: T1, Mast/stem cell growth factor receptor Kit; format: cell-based, GISTT1; remark: listed apart in the source
[14] = system: Mast/stem cell growth factor receptor Kit (Homo sapiens), P10721 [V560D]; conditions: Mus musculus
[15] = system: Mast/stem cell growth factor receptor Kit (Homo sapiens), P10721 [T670I]; conditions: Mus musculus
Description: Inhibition of c-KIT T670I mutant in mouse BAF3(transformed) cells assessed as growth inhibition after 72 hrs by CCK8 assay

GISTT1 [16] = format: functional, Homo sapiens; conditions: Mus musculus, GISTT1, po, 672 h; read-out: TGI
Mus musculus [17] = species: Mus musculus; assay: Inhibition of c-KIT D816E mutant in mouse BAF3(transformed) cells assessed as growth inhibition after 72 hrs by CCK8 assay
Mus musculus [18] = species: Mus musculus; assay: Inhibition of c-KIT T670I/V559D double mutant in mouse BAF3(transformed) cells assessed as growth inhibition after 72 hrs by CCK8 assay
[19] = molecular target: Mast/stem cell growth factor receptor Kit (Mus musculus) (UniProt P05532); assay: Inhibition of c-KIT in mouse BAF3(transformed) cells assessed as growth inhibition after 72 hrs by CCK8 assay
[20] = Toxicity in BALB/c nu mouse implanted with mouse BAF3(transformed) cells harboring c-KIT T670I mutant assessed as change in body weight at 40 to 100 mg/kg/day, po administered via gavage for 11 days measured daily during compound dosing; format: organism-based; conditions: in vivo, 264 h
[21] = Growth inhibition of mouse BAF3 cells measured after 72 hrs by CCK8 assay; format: cell-based
[22] = system: Mast/stem cell growth factor receptor Kit (Homo sapiens), P10721 [D816H]; conditions: Mus musculus
Description: Inhibition of c-KIT D816H mutant in mouse BAF3(transformed) cells assessed as growth inhibition after 72 hrs by CCK8 assay

[23] = molecular target: T2, Mast/stem cell growth factor receptor Kit
[24] = system: Mast/stem cell growth factor receptor Kit (Homo sapiens), P10721 [D816V]; conditions: Mus musculus
Mast/stem cell growth factor receptor Kit (Homo sapiens), P10721 [D816V], sequence (P10721 whole entry D816V): as the sequence (P10721 whole entry, looked up, stated change not applied, the tested form may be a part) above, with D816V counted along it
Description: Inhibition of c-KIT D816V mutant in mouse BAF3(transformed) cells assessed as growth inhibition after 72 hrs by CCK8 assay

[25] = Tmax in Beagle dog at 5 mg/kg, po by LC-MS/MS analysis; format: ADME, organism-based, Canis lupus familiaris; conditions: in vivo
[26] = system: Mast/stem cell growth factor receptor Kit (Homo sapiens), P10721 [Y823D]; conditions: Mus musculus
Description: Inhibition of c-KIT Y823D mutant in mouse BAF3(transformed) cells assessed as growth inhibition after 72 hrs by CCK8 assay

Mus musculus [27] = species: Mus musculus; assay: Inhibition of c-KIT D820G mutant in mouse BAF3(transformed) cells assessed as growth inhibition after 72 hrs by CCK8 assay
GISTT1 [28] = format: functional; conditions: for inhibition in vivo at 20 mg/kg/day: Mus musculus, GISTT1, po, 672 h, read-out: TGI
Mus musculus [29] = format: functional, organism-based; conditions: BALB/c, 80 mg/kg, TDE = time-dependent effect; remark: listed apart in the source
[30] = Antitumor activity against mouse BAF3(transformed) cells harboring c-KIT T670I mutant implanted in BALB/c nu mouse assessed as tumor growth inhibition at 40 mg/kg/day, po administered via gavage for 11 days relative to control; format: functional; conditions: 264 h, read-out: TGI
Mus musculus [31] = species: Mus musculus; assay: Inhibition of c-KIT T670E mutant in mouse BAF3(transformed) cells assessed as growth inhibition after 72 hrs by CCK8 assay
[32] = molecular target: T2, Mast/stem cell growth factor receptor Kit; format: cell-based, GISTT1; remark: listed apart in the source
[33] = molecular target: Vascular endothelial growth factor receptor 3 (Mus musculus) (UniProt P35917); assay: Inhibition of FLT4 in mouse BAF3(transformed) cells assessed as growth inhibition after 72 hrs by CCK8 assay
[34] = Growth inhibition of human GIST48B cells after 72 hrs by CCK8 assay; format: functional
[35] = system: Mast/stem cell growth factor receptor Kit (Homo sapiens), P10721 [A829P]; conditions: Mus musculus
Mast/stem cell growth factor receptor Kit (Homo sapiens), P10721 [A829P], sequence (P10721 whole entry A829P): as the sequence (P10721 whole entry, looked up, stated change not applied, the tested form may be a part) above, with A829P counted along it
Description: Inhibition of c-KIT A829P mutant in mouse BAF3(transformed) cells assessed as growth inhibition after 72 hrs by CCK8 assay

[36] = molecular target: Mast/stem cell growth factor receptor Kit (Homo sapiens, UniProt P10721); assay: Inhibition of human KIT
[37] = molecular target: T2, Mast/stem cell growth factor receptor Kit; remark: listed apart in the source
[38] = system: Mast/stem cell growth factor receptor Kit (Homo sapiens), P10721 [UNDEFINED MUTATION]; conditions: GISTT1, 0.1 uM
Mast/stem cell growth factor receptor Kit (Homo sapiens), P10721 [UNDEFINED MUTATION], sequence (P10721 whole entry, looked up, change not shown): as the sequence (P10721 whole entry, looked up, stated change not applied, the tested form may be a part) above
Description: Inhibition of c-KIT 560 to 578 deletion/T670I mutant in human GISTT1 cells assessed as reduction in AKT phosphorylation at T308 residue at 0.1 uM measured after 2 hrs by Western blot analysis

[39] = system: Mast/stem cell growth factor receptor Kit (Homo sapiens), P10721 [UNDEFINED MUTATION]; conditions: GISTT1, 0.1 uM; remark: listed apart in the source
Description: Inhibition of c-KIT 560 to 578 deletion/T670I mutant in human GISTT1 cells assessed as reduction in c-KIT autophosphorylation at Y823 residue at 0.1 uM measured after 2 hrs by Western blot analysis

[40] = system: Mast/stem cell growth factor receptor Kit (Homo sapiens), P10721 [UNDEFINED MUTATION]; conditions: GISTT1, 0.1 uM; remark: listed apart in the source
Description: Inhibition of c-KIT 560 to 578 deletion/T670I mutant in human GISTT1 cells assessed as reduction in ERK phosphorylation at T202 residue at 0.1 uM measured after 2 hrs by Western blot analysis

[41] = system: Mast/stem cell growth factor receptor Kit (Homo sapiens), P10721 [UNDEFINED MUTATION]; conditions: GISTT1, 0.1 uM; remark: listed apart in the source
Description: Inhibition of c-KIT 560 to 578 deletion mutant in human GISTT1 cells assessed as reduction in c-KIT autophosphorylation at Y823 residue at 0.1 uM measured after 2 hrs by Western blot analysis

[42] = system: Mast/stem cell growth factor receptor Kit (Homo sapiens), P10721 [UNDEFINED MUTATION]; conditions: GISTT1, 0.1 uM; remark: listed apart in the source
Description: Inhibition of c-KIT 560 to 578 deletion/T670I mutant in human GISTT1 cells assessed as reduction in c-KIT autophosphorylation at Y703 residue at 0.1 uM measured after 2 hrs by Western blot analysis

[43] = system: Mast/stem cell growth factor receptor Kit (Homo sapiens), P10721 [UNDEFINED MUTATION]; conditions: GISTT1, 0.1 uM; remark: listed apart in the source
Description: Inhibition of c-KIT 560 to 578 deletion/T670I mutant in human GISTT1 cells assessed as reduction in STAT3 phosphorylation at Y705 residue at 0.1 uM measured after 2 hrs by Western blot analysis

[44] = system: Mast/stem cell growth factor receptor Kit (Homo sapiens), P10721 [UNDEFINED MUTATION]; conditions: GISTT1, 0.1 uM; remark: listed apart in the source
Description: Inhibition of c-KIT 560 to 578 deletion/T670I mutant in human GISTT1 cells assessed as reduction in AKT phosphorylation at S473 residue at 0.1 uM measured after 2 hrs by Western blot analysis

Structure (SMILES): COc1cc2nccc(Oc3ccc(NC(=O)Cc4ccc(Cl)c(C(F)(F)F)c4)cc3)c2cc1OC
- GI50 [1]: 1 nM
- inhibition in vivo at 100 mg/kg/day [2]: 100%
- inhibition in vivo at 40 mg/kg/day [3]: 88.9%
- inhibition (Mus musculus [4]): Tde
- TGI (Homo sapiens): Dose-dependent effect
- GI50 [5]: 6 nM
- GI50 (Mus musculus [6]): 42 nM
- EC50 [7]: < 100 nM
- IC50 [8]: 121 nM
- GI50 [9]: 4 nM
- GI50 (Mus musculus [10]): 17 nM
- GI50 [11]: 3 nM
- EC50 [12]: < 100 nM
- EC50 [13]: < 100 nM
- GI50 [14]: 4 nM
- GI50 [15]: 4 nM
- inhibition in vivo at 20 mg/kg/day (GISTT1 [16]): 95.6%
- GI50 (Mus musculus [17]): 16 nM
- GI50 (Mus musculus [18]): 45 nM
- GI50 [19]: 1 nM
- Activity [20]: Non-Toxic
- GI50 at 72 h [21]: 5970 nM
- GI50 [22]: 97 nM
- EC50 [23]: < 100 nM
- GI50 [24]: 1730 nM
- Tmax [25]: 5.33 h
- GI50 [26]: 35 nM
- GI50 (Mus musculus [27]): 9 nM
- TGI (GISTT1 [28]; Homo sapiens, 20 mg/kg): Dose-dependent effect
- inhibition in vivo at 20 mg/kg/day (GISTT1 [28]): 59.4%
- inhibition (Mus musculus [29]): Tde
- inhibition in vivo at 40 mg/kg/day [30]: 90.2%
- GI50 (Mus musculus [31]): 71 nM
- EC50 [32]: < 100 nM
- GI50 [33]: 522 nM
- GI50 [34]: 1370 nM
- GI50 [35]: 22 nM
- IC50 [36]: 4 nM
- EC50 [37]: < 100 nM

- GI50 [1]: 93 nM
- inhibition [38]: Active
- inhibition [39]: Active
- GI50 [5]: 1 nM
- GI50 (Mus musculus [6]): 19 nM
- inhibition [40]: Active
- GI50 (Mus musculus [10]): 28 nM
- GI50 [11]: 172 nM
- inhibition [41]: Active
- GI50 (Mus musculus [17]): 59 nM
- GI50 (Mus musculus [18]): 12 nM
- GI50 [19]: 3 nM
- GI50 [22]: 315 nM
- GI50 [24]: 1720 nM
- GI50 (Mus musculus [27]): 389 nM
- inhibition [42]: Active
- GI50 (Mus musculus [31]): 89 nM
- inhibition [43]: Active
- inhibition [44]: Active
- GI50 [35]: 18 nM
Structure (SMILES): CCN(CC)CCNC(=O)c1c(C)[nH]c(/C=C2\C(=O)Nc3ccc(F)cc32)c1C [SUNITINIB]
- GI50 at 72 h [21]: 1010 nM
- inhibition in vivo at 20 mg/kg/day (GISTT1 [28]): 93.6%
- inhibition in vivo at 40 mg/kg/day [30]: 96.7%
- GI50 [34]: 740 nM

From ChEMBL document CHEMBL4359837, “Discovery of 2-(4-Chloro-3-(trifluoromethyl)phenyl)-N-(4-((6,7-dimethoxyquinolin-4-yl)oxy)phenyl)acetamide (CHMFL-KIT-64) as a Novel Orally Available Potent Inhibitor against Broad-Spectrum Mutants of c-KIT Kinase for Gastrointestinal Stromal Tumors” (J Med Chem, 2019)
